Test results taken from patent US6414035B1, “Use of polyols in combating yeast infection and polyol preparations for said use” (priority 1997, dated 2002).
Marks after values point to notes of the source that are not given here.

How the values were obtained:
[1] = system: Candida isolate from AIDS patient No 1; assay: Sensitivity test of Candida isolate to antifungals; format: cell-based; details: for sensitivity of the isolate: Candida isolate from AIDS patient No 1
[2] = system: Candida (oral or esophageal candidiasis); assay: Open label pilot trial of dietary xylitol intake in AIDS patients with candida mucositis; format: in vivo, human; design: pain symptoms (score) / Sympt. score: scale not given here
Description: An open label, pilot trial was designed to test the effect of the strategy of dietary xylitol intake in replacement of sugar in patients with candida mucositis. AIDS patients with oral or esophageal candidiasis were selected as subjects for the study because of the frequency and the severity of candida mucositis that they usually develop. Patients with AIDS were considered eligible for the test after their oral or esophageal lesions were documented by microscopic examination of scrapings to be of Candida origin. They were free to continue on any antifungal therapy they might be receiving. Instructions were given to replace the saccharose that they normally take with coffee or tea for crystalline xylitol. Also, to avoid excess sweets like ice cream, cakes. cookies, and artificially flavored drinks that contain glucose. The following was done at baseline and thereafter every 7 days: 1. Pictures of the lesions 2. Tongue imprints in Sabouraud agar 3. Quantitative Candida cultures on unstimulated saliva (CFU/ml) 4. Pain questionnaire (numerical pain scale) 5. Weight 6. Patients kept a daily record of food and drink.

salivary Candida = details: diet of human test group during 8 months; cited from earlier work
[3] = system: Candida (recurrent oral candidiasis); assay: Pilot study of xylitol replacing dietary saccharose in patients with recurrent oral candidiasis; format: in vivo, human
Description: A pilot study was designed to test the effect of xylitol on the clinical course, Candida salivary counts, and antifungal needs of patients with recurrent oral candidiasis. The patients were instructed to replace their dietary saccharose with crystalline xylitol and to avoid excess saccharose-containing-foods and beverages.
Of 14 patients admitted to the test, 8 completed more than 14 days of follow up. The result was that all 8/8 experienced at least 70% regression of their lesions (improvement) with minimal antifungal therapy (1 nystatin tablet 500,000 U/per day); 5/8 had complete regression of the lesions (cure); and 6/8 decreased their salivary Candida counts by 2 logs.

[4] = system: Candida isolate from AIDS patient No 1; assay: Growth of Candida isolate on Muller Hinton agar with sugar or sugar alcohol; format: cell-based; details: 5 and 10%, FIG. 1
Procedure: The effect of sugar alcohols on the growth of said Candida isolate was tested on Muller Hinton agar with 5 and 10% glucose or 5 and 10% xylitol and a control without sugar.

Candida albicans = assay: Growth in vitro of Candida albicans in Muller Hinton broth with sweeteners (optical density 650 nm); format: cell-based; details: 10% concentration, 12 strains
Description: A test was designed to determine the effect on the growth in vitro of Candida albicans of xylitol, lactitol, sorbitol and aspartame in comparison to glucose and a non-carbohydrate control medium. The tested substances have all been used in the food industry as sweeteners. The sweetness of the substances in the above order is respectively 100%, 40%, 60% and 20.000% of the sweetness of glucose.
12 strains of Candida albicans obtained from patients with AIDS and oral candida mucositis were evaluated. The strains were inoculated on Sabouraud agar plates (20% dextrose) and incubated at room temperature for 48 hours. One colony from each plate was inoculated in Muller Hinton broth (without sweetener) and left for 18 hours at 35° C. The tubes were standardized to Mac Farland 0.5 (5×10^6 CFU/ml) and 100 μl inoculated in triplicate in spectrophotometer tubes containing 3 ml of Muller Hinton broth at final concentrations of glucose (5% and 10%); xylitol (5% and 10%); lactitol (5%, 8.3% and 10%); sorbitol (5%, 10% and 12.5%); and aspartame (0.025% and 0.05%). 3 tubes with Muller Hinton broth without carbohydrate was also inoculated to serve as controls.
Optical densities (650 nm) were determined at 0, 24 and 48 hours time. The average of three readings per time, per sweetener concentration was calculated and recorded. […]

Candida = details: cited from earlier work

## C[C@@H]1[C@H](O)[C@@H](C)/C=C/C=C/C=C/C=C/C=C/C=C/C=C/[C@H](O[C@@H]2O[C@H](C)[C@@H](O)[C@H](N)[C@@H]2O)C[C@@H]2O[C@](O)(C[C@@H](O)C[C@@H](O)[C@H](O)CC[C@@H](O)C[C@@H](O)CC(=O)O[C@H]1C)C[C@H](O)[C@H]2C(=O)O [Amphotericin B]
[1]
  sensitivity of the isolate: sensitive

## OC(Cn1cncn1)(Cn1cncn1)c1ccc(F)cc1F [Fluconazole]
[2]; AIDS patient No 2, a month later, fluconazole p.o. for 15 days during xylitol trial
  follow up esophagoscopy: no lesions
[1]; Candida
  MIC: > 256 mg/L
[1]
  sensitivity of the isolate: resistant

## O=C(CO)[C@@H](O)[C@H](O)[C@H](O)CO [fructose]
Salivary Candida
  number of persons with salivary Candida growth: slight increase

## OC[C@H]1O[C@@](CO)(O[C@H]2O[C@H](CO)[C@@H](O)[C@H](O)[C@H]2O)[C@@H](O)[C@@H]1O [sucrose]
Salivary Candida
  number of persons with salivary Candida growth: slight increase

## OC[C@@H](O)[C@H](O)[C@@H](O)CO [xylitol]
[3]; 1 patient, previously fluconazole resistant isolate (E test)
  lesions and fungal cultures after 4 months of xylitol intake: without lesions and sterile fungal cultures
[3]; more than 14 days follow up
  patients who decreased their salivary Candida counts by 2 logs: 6/8
  patients with complete regression of the lesions (cure): 5/8
[3]; more than 14 days follow up, with minimal antifungal therapy (1 nystatin tablet 500,000 U/per day)
  patients with at least 70% regression of their lesions (improvement): 8/8
[3]; three patients
  time to return to baseline after returning to saccharose intake: 3 days
[2]; AIDS patient No 2, Candida esophagitis, two weeks after start of xylitol intake, no antifungal therapy
  esophageal lesions: unchanged lesions
[2]; AIDS patient No 2, day 1
  Sympt. score: 18
  Weight: 58,5 Kg
[2]; AIDS patient No 2, day 7
  CFU/ml saliva: 0 CFU/ml
  Sympt. score: 0
  Weight: 58,5 Kg
[2]; AIDS patient No 2, day 15
  Sympt. score: 0
  Weight: 58,5 Kg
[2]; AIDS patient No 2, day 15, counted at 72 hours
  CFU/ml saliva: 3,6 × 10^3** CFU/ml
[2]; AIDS patient No 2, day 22
  Sympt. score: 0
  Weight: 57,5 Kg
[2]; AIDS patient No 2, day 22, counted at 72 hours, fluconazole p.o. started after two weeks
  CFU/ml saliva: 4,5 × 10^2** CFU/ml
[2]; AIDS patient No 2, day 29
  Sympt. score: 0
  Weight: 57,2 Kg
[2]; AIDS patient No 2, day 29, fluconazole p.o. started after two weeks
  CFU/ml saliva: 0 CFU/ml
[2]; AIDS patient No 2, day 36
  Sympt. score: 0
  Weight: 57,7 Kg
[2]; AIDS patient No 2, day 36, fluconazole p.o. 15 days given after two weeks
  CFU/ml saliva: 0 CFU/ml
[2]; AIDS patient No 2, day 50
  Sympt. score: 0
  Weight: 56,9 Kg
[2]; AIDS patient No 2, day 50, fluconazole p.o. 15 days given after two weeks
  CFU/ml saliva: 0 CFU/ml
[2]; AIDS patient No. 1, about 30 g crystalline xylitol daily
  symptom-free follow-up period: 80 days
[2]; AIDS patient No. 1, after 2.5 months
  Candida counts: still negative
[2]; AIDS patient No. 1, day 1
  Sympt. score: 18
  Weight: 62 kg
[2]; AIDS patient No. 1, day 1, counted at 48 hours
  CFU/mL saliva: 1×10^4 CFU/mL
[2]; AIDS patient No. 1, day 8
  Sympt. score: 0
  Weight: 62.6 kg
[2]; AIDS patient No. 1, day 8, plates held for 7 days
  CFU/mL saliva: 0** CFU/mL
[2]; AIDS patient No. 1, day 18
  Sympt. score: 0
  Weight: 73.4 kg
[2]; AIDS patient No. 1, day 18, plates held for 7 days
  CFU/mL saliva: 0** CFU/mL
[2]; AIDS patient No. 1, day 29
  Sympt. score: 0
  Weight: 73 kg
[2]; AIDS patient No. 1, day 29, plates held for 7 days
  CFU/mL saliva: 0** CFU/mL
[2]; AIDS patient No. 1, day 36
  Sympt. score: 0
  Weight: 74.8 kg
[2]; AIDS patient No. 1, day 36, plates held for 7 days
  CFU/mL saliva: 0** CFU/mL
[2]; AIDS patient No. 1, day 56
  Sympt. score: 0
  Weight: 75 kg
[2]; AIDS patient No. 1, day 56, plates held for 7 days
  CFU/mL saliva: 0** CFU/mL
[2]; AIDS patient No. 1, day 80
  Sympt. score: 0
  Weight: 75.1 kg
[2]; AIDS patient No. 1, day 80, plates held for 7 days
  CFU/mL saliva: 0** CFU/mL
[2]; AIDS patient No. 1, day seven
  Candida counts: negative
[2]; AIDS patient No. 1, follow-up of 80 days
  weight gained: 13.1 kilograms
[2]; AIDS patient No. 1, ketoconazole discontinued on day four
  time to disappearance of the lesions: 1 week
[2]; AIDS patient No. 1, on ketoconazole until day four
  improvement noticed by the patient: clear improvement on day four
[2]; AIDS patient No. 3
  time to recurrence of oral candidiasis after stopping the xylitol trial: 4 days
[2]; AIDS patient No. 3, at start
  pain symptoms (score): 30
[2]; AIDS patient No. 3, first 17 days
  saliva counts: diminished
[2]; AIDS patient No. 3, in the first 17 days, 1 nystatin troche during the first five days
  pain symptoms (score): 8
[4]
  growth of Candida isolate compared to control without sugar: inhibited in a dose dependent way
Candida albicans
  rank among tested compounds at reducing the growth of Candida in vitro: by far the best
Salivary Candida
  number of persons with salivary Candida growth: significantly reduced
Candida; given instead of glucose
  Candida growth and invasion compared to controls: did not increase
Candida; immunocompromised mice
  invasion of gastrointestinal mucosa by Candida relative to mice receiving glucose: five times less
  scores of invasion versus control mice receiving no sugar: not significantly different
